Source: PubChem BioAssay AID1259407 (Chemical Carcinogenesis Research Information System (CCRIS), 2018)
Calls of active or inactive are those of the source. How the calls were made is not given here.

Test system: CCRIS mutagenicity, Ames/micronucleus/aberration tests
Experiment: CCRIS mutagenicity studies
Settings: Test System: AMES SALMONELLA TYPHIMURIUM

Measured: mutagenic call

Nc1ccc(-c2ccccc2)cc1
inactive: Strain/Indicator: DJ400, Metabolic Activation: TOBACCO TX1 CELLS, Method: PREINCUBATION inactive; negative | Strain/Indicator: MP110, Metabolic Activation: TOBACCO TX1 CELLS, Method: PREINCUBATION inactive; negative | Strain/Indicator: MP120, Metabolic Activation: TOBACCO TX1 CELLS, Method: PREINCUBATION inactive; negative | Strain/Indicator: TA97, Metabolic Activation: NONE, Method: STANDARD PLATE inactive; negative | Strain/Indicator: TA98(1,8-DNP6), Metabolic Activation: TOBACCO CELL-FREE TXIMX, Method: PREINCUBATION inactive; negative | Strain/Indicator: TA98, Metabolic Activation: HUMAN, UROEPITHELIAL CELL CYTOSOL, Method: PREINCUBATION inactive; negative | Strain/Indicator: TA98, Metabolic Activation: HUMAN, UROEPITHELIAL CELL, MICROSOMES, Method: PREINCUBATION inactive; negative | Strain/Indicator: TA98, Metabolic Activation: HUMAN, UROEPITHELIAL CELL, S-9, Method: PREINCUBATION inactive; negative | Strain/Indicator: TA98, Metabolic Activation: NONE, Method: PREINCUBATION inactive; negative | Strain/Indicator: TA100, Metabolic Activation: NONE, Method: PREINCUBATION inactive; negative | Strain/Indicator: TA100, Metabolic Activation: RAT, BLADDER, S-9, PCB, Method: FLUCTUATION TEST inactive; negative
active: Strain/Indicator: DJ460, Metabolic Activation: TOBACCO TX1 CELLS, Method: PREINCUBATION active; positive | Strain/Indicator: MP208, Metabolic Activation: TOBACCO CELL-FREE TXIMX, Method: PREINCUBATION active; positive | Strain/Indicator: MP219, Metabolic Activation: TOBACCO CELL-FREE TXIMX, Method: PREINCUBATION active; positive | Strain/Indicator: TA97, Metabolic Activation: RAT, LIVER, S-9, AROCLOR 1254, Method: STANDARD PLATE active; positive | Strain/Indicator: TA98(1,8-DNP6), Metabolic Activation: PLANT CELLS, Method: PREINCUBATION active; positive | Strain/Indicator: TA98(NR), Metabolic Activation: TOBACCO CELL-FREE TXIMX, Method: PREINCUBATION active; positive | Strain/Indicator: TA98, Metabolic Activation: HUMAN, RED BLOOD CELL, CYTOSOL, Method: PREINCUBATION active; positive | Strain/Indicator: TA98, Metabolic Activation: PLANT CELLS, Method: PREINCUBATION active; positive | Strain/Indicator: TA98, Metabolic Activation: RAT LIVER S-9, AROCLOR 1254, Method: PREINCUBATION active; positive | Strain/Indicator: TA98, Metabolic Activation: RAT LIVER S-9, AROCLOR, Method: STANDARD PLATE active; positive | Strain/Indicator: TA98, Metabolic Activation: RAT, BLADDER, S-9, PCB, Method: FLUCTUATION TEST active; positive | Strain/Indicator: TA98, Metabolic Activation: RAT, LIVER, S-9, AROCLOR 1254 (4%), Method: STANDARD PLATE active; positive | Strain/Indicator: TA98, Metabolic Activation: RAT, LIVER, S-9, KC500 OR PHENOBARBITAL, Method: LIQUID SUSPENSION active; positive | Strain/Indicator: TA98, Metabolic Activation: TOBACCO CELL-FREE TXIMX, Method: PREINCUBATION active; positive | Strain/Indicator: TA100 (1,8-DNP), Metabolic Activation: MOUSE LIVER S-9, AROCLOR 1254, 10%, Method: PREINCUBATION active; positive | Strain/Indicator: TA100 (1,8-DNP), Metabolic Activation: RAT LIVER S-9, AROCLOR 1254, 10%, Method: PREINCUBATION active; positive | Strain/Indicator: TA100(NR), Metabolic Activation: TOBACCO CELL-FREE TXIMX, Method: PREINCUBATION active; positive | Strain/Indicator: TA100(TN:OAT), Metabolic Activation: TOBACCO CELL-FREE TXIMX, Method: PREINCUBATION active; positive | Strain/Indicator: TA100, Metabolic Activation: MOUSE LIVER S-9, AROCLOR 1254, 10%, Method: PREINCUBATION active; positive | Strain/Indicator: TA100, Metabolic Activation: RAT LIVER S-9, AROCLOR 1254, 10%, Method: PREINCUBATION active; positive | Strain/Indicator: TA100, Metabolic Activation: RAT LIVER S-9, AROCLOR 1254, Method: PREINCUBATION active; positive | Strain/Indicator: TA100, Metabolic Activation: RAT LIVER S-9, AROCLOR, Method: STANDARD PLATE active; positive | Strain/Indicator: TA100, Metabolic Activation: RAT, LIVER, S-9, KC500 OR PHENOBARBITAL, Method: LIQUID SUSPENSION active; positive
